In patent US20090176835A1, “PHARMACEUTICAL COMPOSITION FOR SUPPRESSION OF THE EXPRESSION OF ATP CITRATE LYASE AND USE THEREOF” (Ajinomoto Co., Inc., priority 2002, published 2009):

What was measured:
[1] = after 30 days' administration; patients without liver diseases (Drugs R&D 2(2):123 (1999)); cited from earlier work
[2] = Blood GOT and GPT as indices of liver function in patients with type 2 diabetes, 12 weeks oral nateglinide; format: in vivo, human; conditions: for GOT, change (0 to 12 weeks) / GPT, change (0 to 12 weeks): decrease, p<0.05
Experimental: Nateglinide was orally administered to patients with type 2 diabetes three times a day in a dose of usually […] before meals for 12 weeks. Blood GOT and GPT concentrations were determined as indices of the liver function in 0 week and 12th week. In analysis 1, the results obtained by the oral administration of nateglinide to 53 patients with type 2 diabetes each having fatty liver for 12 weeks were analyzed. In analysis 2, the results obtained by the oral administration of nateglinide to 16 cases of type-2 diabetes having liver disorders (GOT, GPT≧51 IU/L) were analyzed.

[3] = system: rat ACL gene (GenBank ID: J05210); experiment: Liver ACL expression analyzed with DNA chips, Experiment 2 (GK rats); format: in vivo
Experimental: In Experiment 1, methylcellulose or 50 mg/kg of nateglinide suspended in methylcellulose was orally administered to normal Wistar rats fasted overnight. One hour after the administration, the liver was taken from each rat and freezed. The total RNA was extracted with RNeasy kit (Qiagen Co. Ltd). Biotinylated cRNA probe was prepared by a standard method and then it was hybridized to rat genome U34 array (Affymetrix Co. Ltd). The amount of cRNA hybridized to rat ACL gene (GenBank ID: J05210) was analyzed with Microarray Suite 5.0 software (Affymetrix Co. Ltd). Also in Experiment 2, 1 g/kg of glucose, 50 mg/kg of nateglinide or both of glucose and nateglinide were orally administered to Wistar rats and GK rats fasted overnight. One hour after the administration, the liver was taken from each rat and the expression of ACL level was analyzed with DNA chips in the same manner as that in Experiment 1.

[4] = Insulin level in GK rat portal vein after nateglinide; format: in vivo; conditions: after administration
[5] = system: rat ACL gene (GenBank ID: J05210); experiment: Liver ACL expression analyzed with DNA chips, Experiment 1 (normal Wistar rats); format: in vivo
Experimental: The effect of nateglinide on the expression of liver ACL was analyzed with DNA chips. In Experiment 1, methylcellulose or 50 mg/kg of nateglinide suspended in methylcellulose was orally administered to normal Wistar rats fasted overnight. One hour after the administration, the liver was taken from each rat and freezed. The total RNA was extracted with RNeasy kit (Qiagen Co. Ltd). Biotinylated cRNA probe was prepared by a standard method and then it was hybridized to rat genome U34 array (Affymetrix Co. Ltd). The amount of cRNA hybridized to rat ACL gene (GenBank ID: J05210) was analyzed with Microarray Suite 5.0 software (Affymetrix Co. Ltd).

[6] = cited from earlier work
[7] = analysis 1: 53 type 2 diabetes patients with fatty liver
[8] = analysis 1: type 2 diabetes patients with fatty liver, 12 weeks
[9] = analysis 2: 16 cases of type-2 diabetes with liver disorders
[10] = analysis 2: type-2 diabetes with liver disorders, 12 weeks

In the case of `CC(C)[C@H]1CC[C@H](C(=O)N[C@H](Cc2ccccc2)C(=O)O)CC1` [nateglinide, (−)-N-(trans-4-isopropylcyclohexanecarbonyl)-D-phenylalanine], the “Alterations in liver function” value [1] is listed as “no significant alterations”, the “GOT value after administration” value ([2]; 5 cases with fatty liver and NASH-like liver troubles (GOT, GPT≧51 IU/L, GPT>GOT), reduced from 138.6±56.0) is listed as 83.6±41.5 IU/L and the “GPT value after administration” value ([2]; 5 cases with fatty liver and NASH-like liver troubles (GOT, GPT≧51 IU/L, GPT>GOT), reduced from 242.6±112.8) is listed as 57.8±59.2 IU/L. For the same compound, the “GOT, 12th week” value ([2]; analysis 1: 53 type 2 diabetes patients with fatty liver, 12 weeks oral, 0 week 58.4 ± 34.4) was 33.8 ± 22.9 IU/L, the “GPT, 12th week” value ([2]; analysis 1: 53 type 2 diabetes patients with fatty liver, 12 weeks oral, 0 week 77.2 ± 55.9) was 44.0 ± 29.7 IU/L and the “GOT, change (0 to 12 weeks)” value [2, 7] was 24.7 ± 12.4 IU/L. The “GPT, change (0 to 12 weeks)” value [2, 7] was 33.2 ± 31.0 IU/L, the “Level of GOT after administration compared with before” value [2, 8] was “statistically significant lowered” and the “Level of GPT after administration compared with before” value [2, 8] was “statistically significant lowered”. The “GOT, 12th week” value ([2]; analysis 2: 16 cases of type-2 diabetes with liver disorders (GOT, GPT≧51 IU/L), 0 week 133.3 ± 51.3) was 85.4 ± 40.9 IU/L, the “GPT, 12th week” value ([2]; analysis 2: 16 cases of type-2 diabetes with liver disorders (GOT, GPT≧51 IU/L), 0 week 217.3 ± 94.1) was 80.2 ± 53.4 IU/L and the “GOT, change (0 to 12 weeks)” value [2, 9] was 47.8 ± 37.9 IU/L. The “GPT, change (0 to 12 weeks)” value [2, 9] was 137.0 ± 43.4 IU/L, the “GOT before vs after administration” value [2, 10] was “statistically significant lowering” and the “GPT before vs after administration” value [2, 10] was “statistically significant lowering”. For the same compound, the “Expression level of liver ACL (cRNA hybridized to rat ACL gene), Analysis 1” value ([3]; Experiment 2 group 5, GK rats fasted overnight, 50 mg/kg oral with 1 g/kg glucose, liver 1 h after, GK controls 139.6) was 66.4, the “Expression level of liver ACL (cRNA hybridized to rat ACL gene), Analysis 2” value ([3]; Experiment 2 group 5, GK rats fasted overnight, 50 mg/kg oral with 1 g/kg glucose, liver 1 h after, GK controls 452.5 / 416.7) was 189.9 and the “Elevated liver ACL expression level” value ([3]; GK rats, Experiment 2, groups 3, 4 vs 5) was “significantly suppressed and returned to the normal level”. The “Insulin level in portal vein” value [4] was “transient increase”, the “Expression level of liver ACL (cRNA hybridized to rat ACL gene), Analysis 1” value ([5]; Wistar rats fasted overnight, 50 mg/kg oral, no glucose, liver 1 h after, methylcellulose control 96.2) was 144.4 and the “Expression level of liver ACL (cRNA hybridized to rat ACL gene), Analysis 2” value ([5]; Wistar rats fasted overnight, 50 mg/kg oral, no glucose, liver 1 h after, methylcellulose control 459.3) was 543.6. For the same compound, the “Suppression of liver ACL mRNA level” value ([5]; normal Wistar rats) was “no significant suppression”, the “Effect of hepatic cirrhosis on pharmacokinetics” value ([6]; J. Clin. Pharmacol. 40:634 (2000), Drugs 60(3):607 (2000)) was “no significant effect” and the “Increase of total exposure” value ([6]; subjects with mild hepatic impairment (Am J Health-Syst Pharm 58, 285 (2001))) was 30%.
